Structures can show the parent of a compound that is named as a salt.
Test system: Huh7 cells expressing a subgenomic RNA replicon of Con1 (genotype 1b) sequence origin
Assay: microbe, parasite or virus in culture
Settings: Hepatitis C virus; for IC50: Huh-7; for Emax: Huh-7, read-out: Max Effect@CC30 (inhibition)

Compound	IC50	Emax
Nc1ccc(OCCCCCOc2ccc(N)cc2)cc1 [1,5-Bis(4-aminophenoxy)pentane, reference compound]	1.7 µM	–
Oc1cccc2c(O)nccc12 [1,5-Isoquinolinediol, reference compound]	25.9 µM	–
Nc1ccccc1OCCCCCOc1ccccc1N [2,2′-(Pentamethylenedioxy)dianiline, reference compound]	0.27 µM	–
O=C1CC(O)(c2ccccc2)Oc2ccccc21 (stereo not shown) [2-Hydroxyflavanone, 2-hydroxyflavanone, reference compound]	2.48 µM	–
C[C@@]1(O)[C@H](O)[C@@H](CO)O[C@H]1n1ccc(N)nc1=O [2′-C-Methylcytidine, 2′-C-methylcytidine, reference compound]	1.63 µM	–
Nc1cccc(OCCCCCOc2cccc(N)c2)c1 [3,3′-(Pentamethylenedioxy)dianiline, reference compound]	1.63 µM	–
CC(C)(C)C(=O)OCOP(=O)(COCCn1cnc2c(N)ncnc21)OCOC(=O)C(C)(C)C [Adefovir (e.g., dipivoxil), adefovir dipivoxil, reference compound]	0.319 µM	–
Nc1nc[nH]n1 [Amitrole]	14.6 µM	–
CCC(C)(C)c1ccc(CC(C)CN2C[C@@H](C)O[C@@H](C)C2)cc1 (stereo partly shown) [Amorolfine (e.g., hydrochloride), amorolfine, reference compound]	1.62 µM	–
C[C@@]1(CO)[C@H](O)CC[C@@]2(C)[C@H]1CC[C@H]1C[C@@H]3C[C@@]12CC[C@]3(O)CO [Aphidicolin, aphidicolin, reference compound]	1.71 µM	–
CCOC(=O)c1c(CSc2ccccc2)n(C)c2cc(Br)c(O)c(CN(C)C)c12 [Arbidol, arbidol, reference compound]	12.2 µM	–
C[C@@H]1CC[C@H]2[C@@H](C)C(=O)O[C@@H]3O[C@]4(C)CC[C@@H]1[C@]32OO4 [Artemisinin, artemisinin, reference compound]	4.45 µM	–
C[C@H]1[C@H](OC(=O)CCC(=O)O)O[C@@H]2O[C@@]3(C)CC[C@H]4[C@H](C)CC[C@@H]1[C@@]24OO3 [Artesunate, artesunate, reference compound]	3.73 µM	–
CN1CCCC(n2nc(Cc3ccc(Cl)cc3)c3ccccc3c2=O)CC1 (stereo not shown) [Azelastine, azelastine, reference compound]	6.22 µM	–
CCCCOc1cc(C(=O)OCCN(CC)CC)ccc1N [Benoxinate (e.g., hydrochloride), benoxinate, reference compound]	3.02 µM	–
N=C(NCc1ccccc1)NC(=O)c1nc(Cl)c(N)nc1N [Benzamil (e.g., HCl), benzamil, reference compound]	4.73 µM	–
CCOC(=O)c1ccc(N)cc1 [Benzocaine, reference compound]	13.9 µM	–
CN(C)CCCOc1nn(Cc2ccccc2)c2ccccc12 [Benzydamine (e.g., hydrochloride), benzydamine, reference compound]	9 µM	–
CC1=C(/C=C/C(C)=C/C=C/C(C)=C/C=C/C=C(C)/C=C/C=C(C)/C=C/C2=C(C)CCCC2(C)C)C(C)(C)CCC1 [Beta-Carotene]	18.5 µM	–
c1ccc(-c2ccc(C(c3ccccc3)n3ccnc3)cc2)cc1 (stereo not shown) [Bifonazole, reference compound]	6.15 µM	–

Compound	IC50	Emax
CC(C)(C)NC(=O)NC(C(=O)N1C[C@H]2[C@@H]([C@H]1C(=O)NC(CC1CCC1)C(=O)C(N)=O)C2(C)C)C(C)(C)C (stereo partly shown) [Boceprevir (SCH 503034), Boceprevir, reference compound]	0.259 µM	–
CN(Cc1cc(Br)cc(Br)c1N)C1CCCCC1 [Bromhexine, reference compound]	14.2 µM	–
CC(C)C[C@H]1C(=O)N2CCC[C@H]2[C@]2(O)O[C@](NC(=O)[C@@H]3C=C4c5cccc6[nH]c(Br)c(c56)C[C@H]4N(C)C3)(C(C)C)C(=O)N12 [Bromocriptine (e.g., mesylate), bromocriptine, reference compound]	3.38 µM	–
CCCC1O[C@@H]2C[C@H]3[C@@H]4CCC5=CC(=O)C=C[C@]5(C)[C@H]4[C@@H](O)C[C@]3(C)[C@]2(C(=O)CO)O1 (stereo partly shown) [Budesonide, budesonide, reference compound]	15.7 µM	–
CCCCOc1ccc(CC(=O)NO)cc1 [Bufexamac, bufexamac, reference compound]	8.29 µM	–
CC[C@@]1(O)C(=O)OCc2c1cc1n(c2=O)Cc2cc3ccccc3nc2-1 [Camptothecin, camptothecin, reference compound]	0.026 µM	–
COc1cc(CNC(=O)CCCC/C=C/C(C)C)ccc1O [Capsaicin, reference compound]	11.7 µM	–
CNC(=O)Oc1cccc2ccccc12 [Carbaryl]	9.65 µM	–
CC1=C(O)C(=O)C=C2C1=CC=C1[C@@]2(C)CC[C@@]2(C)[C@@H]3C[C@](C)(C(=O)O)CC[C@]3(C)CC[C@]12C [Celastrol, reference compound]	0.449 µM	–
COc1ccc2cc1Oc1ccc(cc1)C[C@H]1c3c(cc4c(c3Oc3cc5c(cc3OC)CCN(C)[C@@H]5C2)OCO4)CCN1C [Cepharanthine, reference compound]	19.5 µM	–
C/C=C/C/C=C/CCC(=O)[C@H]1O[C@H]1C(N)=O [Cerulenin, reference compound]	16.2 µM	–
CCN(CC)CCCC(C)Nc1ccnc2cc(Cl)ccc12 (stereo not shown) [Chloroquine (e.g., phosphate), Chloroquine, reference compound]	4.78 µM	–
CN(C)CCOC(C)(c1ccccc1)c1ccc(Cl)cc1 (stereo not shown) [Chlorphenoxamine (e.g., hydrochloride), chlorphenoxamine, reference compound]	16.2 µM	–
CN(C)CCCC1(c2ccc(F)cc2)OCc2cc(C#N)ccc21 (stereo not shown) [Citalopram (e.g., hydrobromide), Citalopram, reference compound]	27.3 µM	–
Nc1nc(Cl)nc2c1ncn2[C@H]1C[C@H](O)[C@@H](CO)O1 [Cladribine, 2-chloro-2′-deoxyadenosine, reference compound]	0.112 µM	–
CSc1ccc(Oc2ccccc2CN(C)C)cc1 [Compound 35, N,N-dimethyl(2-(4-(methylthio)phenoxy)phenyl)methanamine]	–	48%
COc1cccc(Oc2ccc(Br)cc2CN(C)C)c1 [Compound 38, (5-bromo-2-(3-methoxyphenoxy)phenyl)-N,N-dimethylmethanamine]	–	42%
CNCc1cc(S(N)(=O)=O)ccc1Oc1ccc(Br)cc1 [Compound 44, 4-(4-bromophenoxy)-3-((methylamino)methyl)benzenesulfonamide]	–	32.1%
COc1cc(/C=C/C(=O)CC(=O)/C=C/c2ccc(O)c(OC)c2)ccc1O [Curcumin, curcumin]	8.68 µM	–
N=c1ccn2c(n1)O[C@H]1[C@H](O)[C@@H](CO)O[C@H]12 [Cyclocytidine (e.g., hydrochloride), Cyclocytidine, reference compound]	0.183 µM	–

Compound	IC50	Emax
C[C@@H]1C[C@@H]([C@H](O)CC2CC(=O)NC(=O)C2)C(=O)[C@@H](C)C1 [Cycloheximide, reference compound]	0.184 µM	–
Nc1ccn([C@@H]2O[C@H](CO)[C@@H](O)[C@@H]2O)c(=O)n1 [Cytarabine, reference compound]	0.117 µM	–
C[C@]12CC[C@H](O)CC1=CC[C@@H]1[C@@H]2CC[C@]2(C)C(=O)CC[C@@H]12 [Dehydroepiandrosterone, reference compound]	11.2 µM	–
CN1[C@@H]2CC[C@H]1C[C@@H](OC1c3ccccc3CCc3ccccc31)C2 [Deptropine (e.g., citrate), deptropine, reference compound]	11.1 µM	–
N[C@H](Cc1cc(I)c(Oc2cc(I)c(O)c(I)c2)c(I)c1)C(=O)O [Dextrothyroxine (e.g., sodium), dextrothyroxine, reference compound]	5 µM	–
CCCCOc1cc(C(=O)NCCN(CC)CC)c2ccccc2n1 [Dibucaine (e.g., hydrochloride), Dibucaine, reference compound]	6.68 µM	–
C/C=C(/C(=C/C)c1ccc(O)cc1)c1ccc(O)cc1 [Dienestrol, reference compound]	16.5 µM	–
C[C@H]1[C@@H](O)O[C@@H]2O[C@@]3(C)CC[C@H]4[C@H](C)CC[C@@H]1[C@@]24OO3 [Dihydroartemisinin, dihydroartemisinin, reference compound]	3.87 µM	–
CN1C[C@H](C(=O)N[C@]2(C)O[C@@]3(O)[C@@H]4CCCN4C(=O)[C@H](Cc4ccccc4)N3C2=O)C[C@@H]2c3cccc4[nH]cc(c34)C[C@H]21 [Dihydroergotamine (e.g., mesylate), dihydroergotamine, reference compound]	22.8 µM	–
COc1cc(C(=O)OCCCN2CCCN(CCCOC(=O)c3cc(OC)c(OC)c(OC)c3)CC2)cc(OC)c1OC [Dilazep (e.g., dihydrochloride), Dilazep, reference compound]	13.9 µM	–
OC(CCCN1CCCCC1)(c1ccccc1)c1ccccc1 [Diphenidol (e.g., hydrochloride), Diphenidol, reference compound]	25.4 µM	–
CCN(CC)C(=S)SSC(=S)N(CC)CC [Disulfiram, reference compound]	5.5 µM	–
CC(=O)[C@H]1CC[C@H]2[C@@H]3C=CC4=CC(=O)CC[C@@]4(C)[C@@H]3CC[C@]12C [Dydrogesterone, reference compound]	2.75 µM	–
CCc1cn([C@H]2C[C@H](O)[C@@H](CO)O2)c(=O)[nH]c1=O [Edoxudine, edoxudine, reference compound]	1.95 µM	–
O=C1Nc2ccc(Cl)cc2[C@@](C#CC2CC2)(C(F)(F)F)O1 [Efavirenz, efavirenz, reference compound]	15.5 µM	–
CC[C@H]1CN2CCc3cc(OC)c(OC)cc3[C@@H]2C[C@@H]1C[C@H]1NCCc2cc(OC)c(OC)cc21 [Emetine (e.g., dihydrochloride hydrate), Emetine, reference compound]	0.03 µM	–
O=CN/C=C/c1cc(O)ccc1O [Erbstatin, reference compound]	7.63 µM	–
CCN(CC)CCO[C@H]1CC[C@@]2(C)C(=CC[C@@H]3[C@@H]2CC[C@]2(C)C(=O)CC[C@@H]32)C1 [Example U18666A, reference compound]	0.02 µM	–
